# Measurements published in patent US8252290B2, “Herbal composition for treatment of insomnia and other related disorders and a method of preparing the same” (Vita Green Health Products Company Limited, priority 2008, dated 2012).
# Where a name gives a salt, the structure may show the parent alone.
# Legend:
# Assay type in all cases: in vivo
# [1] = system: mice; assay: Elevated Plus Maze Test; conditions: 2 mg/kg oral
# Experimental: (§1) The following three tests on mice were conducted to investigate the anti-depressant and anti-anxiety activities of the herbal composition of the present invention.
# (§2) In all these tests, the test item was the herbal composition as described in Table 2 in the form of a powder. The reference item was Imipramine hydrochloride manufactured by Sigma-Aldrich, USA (for forced swimming and tail suspension tests), and Diazepam tablets supplied by Tianjin Lisheng Pharmaceutical Co. Ltd, China (for elevated plus maze test). Male mice weighing 18-22 g at the start of the study were obtained from the Guangdong Medical Laboratory Animal Center, China.
# (§3) At the beginning of each test, the test item was administrated at three dose levels of 69, 208, and 624 mg per kg of mouse by oral route (gastric gavage). For the Forced Swimming Test and Tail Suspension Test, Imipramine was administrated at the dose level of 20 mg per kg of mouse by oral route (gastric gavage), whereas Diazepam was administrated at the dose level of 2 mg per kg of mouse by oral route (gastric gavage). The Control group only received physiological saline orally by gastric gavage.
# In this common test for assessing anxiety, the mouse is initially placed in the center of an elevated plus-shaped maze consisting of 4 arms (2 open arms & 2 enclosed arms), with its head facing one of the two open arms. The basic measure is to determine the unconditioned response of the tested mouse to a potentially dangerous environment and the preference of the tested mouse for dark, enclosed places over bright places, and exposed places. Typically, the tested mice would avoid entering into open arms due to anxiety, and mice administrated with anxiolytic […] treatments would have decreased aversion to heights and open spaces.
# In this test, two batches of mice were used and in each batch, the mice were allotted at random to five groups, each consisting of ten animals.
# The ratio of open arm entry is the frequency of the times the mice entering the open arms to the total frequency of entry into both open and enclosed arms (in percentages). Likewise, the ratio of time spent in open arms is the proportion of time spent by the mice in the open arms to the total times spent in both open and enclosed arms (in percentages).
# [2] = system: mice; assay: Forced Swimming Test; conditions: 20 mg/kg oral
# Description: After an initial period of vigorous activity, the mice adopt a characteristic immobile posture which is readily identifiable.
# [3] = system: mice; assay: Tail Suspension Test; conditions: 20 mg/kg oral
# Experimental: as §1, §2, §3
# When a mouse is suspended by its tail, its basic instinct first drives him to struggle, but this inescapable stress will eventually force it to develop an immobile posture. […]
SMILES,"Head dipping ([1]; First Batch, Control 16.2 ± 4.61)","Ratio of time spent in open arms ([1]; First Batch, p<0.01 vs Control 31.94 ± 10.82)","Ratio of open arms entry ([1]; First Batch, p<0.01 vs Control 36.16 ± 6.13)","Head dipping ([1]; Second Batch, p<0.01 vs Control 14.0 ± 4.64)","Ratio of time spent in open arms ([1]; Second Batch, p<0.01 vs Control 29.82 ± 8.88)","Ratio of open arms entry ([1]; Second Batch, p<0.01 vs Control 33.66 ± 7.95)","Time of immobility ([2]; First Batch, p<0.01 vs Control 93.19 ± 31.07)","Time of immobility ([2]; Second Batch, p<0.01 vs Control 110.61 ± 28.03)","Time of immobility ([3]; First Batch, p<0.01 vs Control 115.89 ± 39.27)","Time of immobility ([3]; Second Batch, p<0.01 vs Control 100.76 ± 33.49)"
CN1C(=O)CN=C(c2ccccc2)c2cc(Cl)ccc21 [Diazepam],20.67 ± 10.42 times,50.51 ± 10.58 %,51.27 ± 10.08 %,21.5 ± 6.15 times,47.52 ± 12.35 %,52.48 ± 9.97 %,–,–,–,–
"CN(C)CCCN1c2ccccc2CCc2ccccc21 [Imipramine, Imipramine hydrochloride]",–,–,–,–,–,–,43.92 ± 17.63 s,59.90 ± 17.40 s,60.08 ± 16.67 s,52.66 ± 17.05 s
